What was measured:
Experiment in all cases: In vitro antibacterial activity, agar dilution MIC
Format in all cases: cell-based
Candida albicans CCH 442 = test system: Candida albicans CCH 442; set-up: unit not given here; details: code TT, BHI agar, 35-37° C., 20 to 24 hours
Experimental: (§1) Representative compounds of the present invention were assayed in vitro for antibacterial activity as follows: Twelve petri dishes containing successive aqueous dilutions of the test compound mixed with 10 mL of sterilized Brain Heart Infusion (BHI) agar (Difco 0418-01-5) were prepared. Each plate was inoculated with 1:100 (or 1:10 for slow-growing strains, such as Micrococcus and Streptococcus) dilutions of up to 32 different microorganisms, using a Steers replicator block. The inoculated plates were incubated at 35-37° C. for 20 to 24 hours. In addition, a control plate, using BHI agar containing no test compound, was prepared and incubated at the beginning and end of each test.
(§2) An additional plate containing a compound having known susceptibility patterns for the organisms being tested and belonging to the same antibiotic class as the test compound was also prepared and incubated as a further control, as well as to provide test-to-test comparability.
(§3) After incubation, each plate was visually inspected. The minimum inhibitory concentration (MIC) was defined as the lowest concentration of drug yielding no growth, a slight haze, or sparsely isolated colonies on the inoculum spot as compared to the growth control.

[1] = test system: Enterococcus faecium ATCC X043; set-up: unit not given here; details: code II, BHI agar, 35-37° C., 20 to 24 hours
Experimental: as §1, §2, §3

Escherichia coli DC-2 = test system: Escherichia coli DC-2; set-up: unit not given here; details: code SS, BHI agar, 35-37° C., 20 to 24 hours
Experimental: as §1, §2, §3

Escherichia coli JUHL = test system: Escherichia coli JUHL; set-up: unit not given here; details: code QQ, BHI agar, 35-37° C., 20 to 24 hours
Experimental: as §1, §2, §3

Escherichia coli SS = test system: Escherichia coli SS; set-up: unit not given here; details: code RR, BHI agar, 35-37° C., 20 to 24 hours
Experimental: as §1, §2, §3

[2] = test system: Micrococcus luteus ATCC 9341; set-up: unit not given here; details: code OO, BHI agar, 35-37° C., 20 to 24 hours
Experimental: as §1, §2, §3

[3] = test system: Mycobacterium smegmatis ATCC 114; set-up: unit not given here; details: code UU, BHI agar, 35-37° C., 20 to 24 hours
Experimental: as §1, §2, §3

[4] = test system: Nocardia Asteroides ATCC 99700; set-up: unit not given here; details: code VV, BHI agar, 35-37° C., 20 to 24 hours
Experimental: as §1, §2, §3

[5] = test system: Staphylococcus aureus 1775; set-up: unit not given here; details: code GG, BHI agar, 35-37° C., 20 to 24 hours
Experimental: as §1, §2, §3

[6] = test system: Staphylococcus aureus A-5177; set-up: unit not given here; details: code BB, BHI agar, 35-37° C., 20 to 24 hours
Experimental: as §1, §2, §3

[7] = test system: Staphylococcus aureus A-5278; set-up: unit not given here; details: code CC, BHI agar, 35-37° C., 20 to 24 hours
Experimental: as §1, §2, §3

[8] = test system: Staphylococcus aureus ATCC 6538P; set-up: unit not given here; details: code AA, BHI agar, 35-37° C., 20 to 24 hours
Experimental: as §1, §2, §3

[9] = test system: Staphylococcus aureus CMX 553; set-up: unit not given here; details: code FF, BHI agar, 35-37° C., 20 to 24 hours
Experimental: as §1, §2, §3

[10] = test system: Staphylococcus aureus CMX 642A; set-up: unit not given here; details: code DD, BHI agar, 35-37° C., 20 to 24 hours
Experimental: as §1, §2, §3

[11] = test system: Staphylococcus aureus NCTC 10649M; set-up: unit not given here; details: code EE, BHI agar, 35-37° C., 20 to 24 hours
Experimental: as §1, §2, §3

[12] = test system: Staphylococcus epidermidis 3519; set-up: unit not given here; details: code HH, BHI agar, 35-37° C., 20 to 24 hours
Experimental: as §1, §2, §3

[13] = test system: Streptococcus agalactiae CMX 508; set-up: unit not given here; details: code KK, BHI agar, 35-37° C., 20 to 24 hours
Experimental: as §1, §2, §3

[14] = test system: Streptococcus bovis A-5169; set-up: unit not given here; details: code JJ, BHI agar, 35-37° C., 20 to 24 hours
Experimental: as §1, §2, §3

[15] = test system: Streptococcus pyogenes 930; set-up: unit not given here; details: code MM, BHI agar, 35-37° C., 20 to 24 hours
Experimental: as §1, §2, §3

[16] = test system: Streptococcus pyogenes PIU 2548; set-up: unit not given here; details: code NN, BHI agar, 35-37° C., 20 to 24 hours
Experimental: as §1, §2, §3

[17] = test system: Haemophilis Influenzae DILL AMP R; details: code WW, 35-37° C., 20 to 24 hours
Experimental: as §1, §2, §3

[18] = test system: Micrococcus luteus ATCC 4698; details: code PP, BHI agar, 35-37° C., 20 to 24 hours
Experimental: as §1, §2, §3

[19] = test system: Streptococcus Pneumonia 5649; details: code ZZA (code list: ZA), 35-37° C., 20 to 24 hours
Experimental: as §1, §2, §3

[20] = test system: Streptococcus Pneumonia ATCC 6303; details: code XX, 35-37° C., 20 to 24 hours
Experimental: as §1, §2, §3

[21] = test system: Streptococcus Pneumonia GYR 1171; details: code YY, 35-37° C., 20 to 24 hours
Experimental: as §1, §2, §3

[22] = test system: Streptococcus pyogenes EES61; details: code LL, BHI agar, 35-37° C., 20 to 24 hours
Experimental: as §1, §2, §3

[23] = test system: Streptococcus Pneumonia 5979; details: code ZZ, 35-37° C., 20 to 24 hours
Experimental: as §1, §2, §3

Row | SMILES | Antibacterial Activity (MIC) (Candida albicans CCH 442) | Antibacterial Activity (MIC) [1] | Antibacterial Activity (MIC) (Escherichia coli DC-2) | Antibacterial Activity (MIC) (Escherichia coli JUHL) | Antibacterial Activity (MIC) (Escherichia coli SS) | Antibacterial Activity (MIC) [2] | Antibacterial Activity (MIC) [3] | Antibacterial Activity (MIC) [4] | Antibacterial Activity (MIC) [5] | Antibacterial Activity (MIC) [6] | Antibacterial Activity (MIC) [7] | Antibacterial Activity (MIC) [8] | Antibacterial Activity (MIC) [9] | Antibacterial Activity (MIC) [10] | Antibacterial Activity (MIC) [11] | Antibacterial Activity (MIC) [12] | Antibacterial Activity (MIC) [13] | Antibacterial Activity (MIC) [14] | Antibacterial Activity (MIC) [15] | Antibacterial Activity (MIC) [16] | also measured
1 | CC[C@H]1OC(=O)[C@H](C)[C@@H](O[C@H]2C[C@@](C)(OC)[C@@H](O)[C@H](C)O2)[C@H](C)[C@@H](O[C@@H]2O[C@H](C)C[C@H](N(C)C)[C@H]2O)[C@](C)(O)C[C@@H](C)C(=O)[C@H](C)[C@@H](O)[C@]1(C)O [Ery. A, Erythromycin A, reference compound] | >100 | 0.05 | >100 | >100 | 0.78 | 0.05 | 3.1 | 0.1 | >100 | 3.1 | >100 | 0.2 | 0.39 | 0.39 | 0.39 | 0.39 | 0.05 | 0.02 | >100 | 6.2 | Antibacterial Activity (MIC) [17]: 4; Antibacterial Activity (MIC) [18]: 0.2; Antibacterial Activity (MIC) [19]: 16; Antibacterial Activity (MIC) [20]: 0.06; Antibacterial Activity (MIC) [21]: 0.06; Antibacterial Activity (MIC) [22]: 0.05
2 | C=CCC1(C)C(=O)OC(CC)C2(C)OC(=O)NC2C(C)C(=O)C(C)CC(C)(OCC=Cc2cnc3ccccc3c2)C(OC2OC(C)CC(N(C)C)C2O)C(C)C1=O (stereo not shown) [Example 4, Compound of formula (II): R^a is —CH2CH═CH—(3-quinolinyl), R^b is H, Y and Z together are O, T is —NH—, R is —CH2CH═CH2] | >100 | 0.2 | >100 | >100 | 3.1 | 0.1 | 3.1 | 0.1 | >100 | 0.39 | >100 | 0.78 | 0.39 | 0.78 | 0.78 | 0.39 | 0.2 | 0.05 | 12.5 | 0.78 | Antibacterial Activity (MIC) [17]: 16; Antibacterial Activity (MIC) [18]: 0.78; Antibacterial Activity (MIC) [19]: 2; Antibacterial Activity (MIC) [23]: 64; Antibacterial Activity (MIC) [20]: 0.25; Antibacterial Activity (MIC) [21]: 0.25; Antibacterial Activity (MIC) [22]: 0.1
3 | C#CCOC1(C)CC(C)C(=O)C(C)C2NC(=O)OC2(C)C(CC)OC(=O)C(C)(CC=Cc2ccccc2)C(=O)C(C)C1OC1OC(C)CC(N(C)C)C1O (stereo not shown) [Example 9, Compound of formula (II): R^a is —CH2C≡CH, R^b is H, Y and Z together are O, T is —NH—, R is —CH2CH≡CH—(phenyl)] | >100 | 3.1 | >100 | >100 | 6.2 | 1.56 | 12.5 | 1.56 | 100 | 3.1 | >100 | 3.1 | 3.1 | 3.1 | 12.5 | 6.2 | 1.56 | 0.78 | 50 | 3.1 | Antibacterial Activity (MIC) [17]: >64; Antibacterial Activity (MIC) [18]: 3.1; Antibacterial Activity (MIC) [19]: 8; Antibacterial Activity (MIC) [23]: 64; Antibacterial Activity (MIC) [20]: 1; Antibacterial Activity (MIC) [21]: 1; Antibacterial Activity (MIC) [22]: 1.56
4 | CCC1OC(=O)C(C)(O)C(=O)C(C)C(OC2OC(C)CC(N(C)C)C2O)C(C)(OC)CC(C)C(=O)C(C)C2N(CCCCc3ccccc3)C(=O)OC12C (stereo not shown) [Example 10, Compound of formula (II): R^a is CH3, R^b is H, Y and Z together are O, T is —N(W(R^g))-, W is —(CH2)p-, p is 4, R^g is phenyl R is —OH] | 25 | 0.39 | >100 | >100 | 3.1 | 0.39 | 1.56 | 1.56 | 25 | 1.56 | 25 | 1.56 | 1.56 | 1.56 | 1.56 | 1.56 | 0.2 | 0.2 | 6.2 | 1.56 | Antibacterial Activity (MIC) ([17]; unit assumed): 16 µg/mL; Antibacterial Activity (MIC) [18]: 0.39; Antibacterial Activity (MIC) [22]: 0.2

— patent US20020193320A1, “C-2 modified erythromycin derivatives” (priority 1999, published 2002)
